Patent US11142525B2 (Pfizer Inc., priority 2018, dated 2021)
Where a name gives a salt, the structure may show the parent alone.

How the values were obtained:
[1] = target: human full-length recombinant HPK1 (Homo sapiens (Human), UniProt Q92918); test: HPK1 biochemical enzyme assay, microfluidic mobility shift assay (MSA); conditions: mobility shift assay; 75 μM ATP; Morrison equation, tight-binding competitive inhibition; read-out: HPK1 Enzyme Assay_Ki
Experimental: HPK1 enzyme inhibition was measured using a microfluidic mobility shift assay (MSA). […] The reactions were conducted for 60 min at 37° C., stopped by the addition of 50 μL of 0.015 M EDTA, pH 8, and the extent of reactions (˜15-20% conversion with no inhibitor) was determined after electrophoretic separation of the fluorescently labeled peptide substrate and phosphorylated product on an LabChip EZ Reader II (PerkinElmer, Inc., Waltham, Mass.). […]

[2] = tested on: phospho-SLP-76 (Ser376) in Jurkat cells; test: Phospho-SLP-76 (Ser376) Homogeneous Time Resolved Fluorescence (HTRF) assay in Jurkat cells; assay type: cell-based; conditions: Homo sapiens, 30 min pre-treatment, anti-CD3 stimulation 15 min, HTRF, read-out: SLP76 Assay_IC50
Experimental: Jurkat cells were seeded at 90,000 cells/well in 90 uL of RPMI1640 growth medium containing 10% FBS and incubated at 37° C. with 5% CO2 overnight. The following day, compounds were serially diluted from a 10 mM top dose for an 11-point 3 fold dilution curve in DMSO. Compounds were intermediately diluted 1:100 into growth media prior to diluting 1:10 on cells for final concentration 10 μM to 0.1 nM in 0.1% DMSO. After 30 minutes pre-treatment with compounds, the cells were stimulated using 200 μg/mL of F(ab)2 complexed anti-CD3 (clone UCTH1) for 15 min at 37° C. with 5% CO2. Stimulation was stopped with ice cold PBS and cells were harvested by centrifugation before lysis in Cisbio lysis buffer (Cisbio, Bedford, Mass.). Lysates were transferred to white, low-volume plates containing anti-phospho-SLP-76-Cryptate plus anti-phospho-SLP-76-d2 HTRF antibodies and incubated overnight at room temperature protected from light according to the manufacturer's protocol (Cisbio, Bedford, Mass.). HTRF was measured on a Perkin Elmer Envision and IC50 values were calculated by concentration-response curve fitting utilizing four-parameter nonlinear regression analyses.

human full-length recombinant HPK1, sequence (Q92918 whole entry): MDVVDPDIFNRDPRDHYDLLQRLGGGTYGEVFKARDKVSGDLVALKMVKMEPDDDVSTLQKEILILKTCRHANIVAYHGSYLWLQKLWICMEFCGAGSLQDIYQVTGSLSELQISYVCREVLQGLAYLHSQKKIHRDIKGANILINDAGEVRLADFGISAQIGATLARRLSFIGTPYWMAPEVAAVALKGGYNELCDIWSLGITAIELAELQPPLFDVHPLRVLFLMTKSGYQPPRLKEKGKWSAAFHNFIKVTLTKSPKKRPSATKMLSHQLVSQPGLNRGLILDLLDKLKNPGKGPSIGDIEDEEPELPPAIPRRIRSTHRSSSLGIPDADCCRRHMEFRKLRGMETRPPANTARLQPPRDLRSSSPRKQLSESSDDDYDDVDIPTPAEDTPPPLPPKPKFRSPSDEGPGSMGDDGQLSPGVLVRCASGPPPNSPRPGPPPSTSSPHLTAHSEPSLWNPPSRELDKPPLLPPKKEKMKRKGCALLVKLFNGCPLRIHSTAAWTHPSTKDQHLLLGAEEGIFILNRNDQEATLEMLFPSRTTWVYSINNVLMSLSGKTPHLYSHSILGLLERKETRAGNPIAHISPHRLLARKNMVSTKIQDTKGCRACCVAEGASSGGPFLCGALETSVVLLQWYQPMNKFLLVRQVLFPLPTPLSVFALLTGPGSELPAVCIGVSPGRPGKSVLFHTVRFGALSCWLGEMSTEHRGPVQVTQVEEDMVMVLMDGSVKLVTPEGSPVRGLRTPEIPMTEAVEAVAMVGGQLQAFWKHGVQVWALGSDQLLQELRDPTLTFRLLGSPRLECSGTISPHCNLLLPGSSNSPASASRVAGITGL

Row | Compound | Ki [1] [nM] | IC50 [2] [nM]
1 | CNCc1nc(N2[C@H](C)C[C@H]2C)cc2c1CN(c1cccc(-c3nncn3C(C)C)n1)C2=O [Example 28, 6-[(2R,4R)-2,4-dimethylazetidin-1-yl]-4-[(methylamino)methyl]-2-{6-[4-(propan-2-yl)-4H-1,2,4-triazol-3-yl]pyridin-2-yl}-2,3-dihydro-1H-pyrrolo[3,4-c]pyridin-1-one] | 0.41 | 119
2 | CNCc1nc(C(C)(C)C)cc2c1CN(c1cccc(-c3nncn3C(C)C)n1)C2=O [Example 29, 6-tert-butyl-4-[(methylamino)methyl]-2-{6-[4-(propan-2-yl)-4H-1,2,4-triazol-3-yl]pyridin-2-yl}-2,3-dihydro-1H-pyrrolo[3,4-c]pyridin-1-one] | 3.2 | 396
3 | CNCc1nc(C(C)C)cc2c1CN(c1cccc(-c3nncn3C(C)C)n1)C2=O [Example 30, 4-[(methylamino)methyl]-6-(propan-2-yl)-2-{6-[4-(propan-2-yl)-4H-1,2,4-triazol-3-yl]pyridin-2-yl}-2,3-dihydro-1H-pyrrolo[3,4-c]pyridin-1-one] | 2.1 | 573
4 | C[C@H]1COC(=O)N1c1cccc(N2Cc3c(cc(N(C)C)nc3CN)C2=O)n1 [Example 32, 4-(aminomethyl)-6-(dimethylamino)-2-{6-[(4S)-4-methyl-2-oxo-1,3-oxazolidin-3-yl]pyridin-2-yl}-2,3-dihydro-1H-pyrrolo[3,4-c]pyridin-1-one] | 0.34 | 210
5 | CNCc1nc(N2CCC2)cc2c1CN(c1cccc(N3C(=O)OC[C@@H]3C)n1)C2=O [Example 33, 6-(azetidin-1-yl)-4-[(methylamino)methyl]-2-{6-[(4S)-4-methyl-2-oxo-1,3-oxazolidin-3-yl]pyridin-2-yl}-2,3-dihydro-1H-pyrrolo[3,4-c]pyridin-1-one] | 0.28 | 134
6 | CC(C)n1cnnc1-c1cccc(N2Cc3c(cc(N4[C@H](C)C[C@@H]4C)nc3CN)C2=O)n1 [Example 34, 4-(aminomethyl)-6-[(2R,4S)-2,4-dimethylazetidin-1-yl]-2-{6-[4-(propan-2-yl)-4H-1,2,4-triazol-3-yl]pyridin-2-yl}-2,3-dihydro-1H-pyrrolo[3,4-c]pyridin-1-one] | 1.32 | 379
7 | CC(C)c1cnnn1-c1cccc(N2Cc3c(cc(N(C)C)nc3CN)C2=O)n1 [Example 35, 4-(aminomethyl)-6-(dimethylamino)-2-{6-[5-(propan-2-yl)-1H-1,2,3-triazol-1-yl]pyridin-2-yl}-2,3-dihydro-1H-pyrrolo[3,4-c]pyridin-1-one] | 0.12 | 183
8 | C[C@H]1COC(=O)N1c1cccc(N2Cc3c(cc(C(C)(C)C)nc3CN)C2=O)n1 [Example 36, 4-(aminomethyl)-6-tert-butyl-2-{6-[(4S)-4-methyl-2-oxo-1,3-oxazolidin-3-yl]pyridin-2-yl}-2,3-dihydro-1H-pyrrolo[3,4-c]pyridin-1-one] | 5.1 | 1110
9 | CNCc1nc(N(C)C)cc2c1CN(c1cccc(N3C(=O)OC[C@@H]3C(F)F)n1)C2=O [Example 37, 2-{6-[(4R)-4-(difluoromethyl)-2-oxo-1,3-oxazolidin-3-yl]pyridin-2-yl}-6-(dimethylamino)-4-[(methylamino)methyl]-2,3-dihydro-1H-pyrrolo[3,4-c]pyridin-1-one] | 1.5 | 487
10 | CCN(CC)c1cc2c(c(CN)n1)CN(c1cccc(-c3nncn3C(C)C)n1)C2=O [Example 38, 4-(aminomethyl)-6-(diethylamino)-2-{6-[4-(propan-2-yl)-4H-1,2,4-triazol-3-yl]pyridin-2-yl}-2,3-dihydro-1H-pyrrolo[3,4-c]pyridin-1-one] | 0.38 | 147
11 | CNCc1nc(C(C)(C)C)cc2c1CN(c1cccc(N3C(=O)OC[C@@H]3C)n1)C2=O [Example 39, 6-tert-butyl-4-[(methylamino)methyl]-2-{6-[(4S)-4-methyl-2-oxo-1,3-oxazolidin-3-yl]pyridin-2-yl}-2,3-dihydro-1H-pyrrolo[3,4-c]pyridin-1-one] | 1.8 | 672
12 | CNCc1nc(C2CC2)cc2c1CN(c1cccc(N3C(=O)OC[C@@H]3C)n1)C2=O [Example 40, 6-cyclopropyl-4-[(methylamino)methyl]-2-{6-[(4S)-4-methyl-2-oxo-1,3-oxazolidin-3-yl]pyridin-2-yl}-2,3-dihydro-1H-pyrrolo[3,4-c]pyridin-1-one] | 0.81 | 137
13 | CC(C)c1cc2c(c(CN)n1)CN(c1cccc(N3C(=O)OC[C@@H]3C)n1)C2=O [Example 41, 4-(aminomethyl)-2-{6-[(4S)-4-methyl-2-oxo-1,3-oxazolidin-3-yl]pyridin-2-yl}-6-(propan-2-yl)-2,3-dihydro-1H-pyrrolo[3,4-c]pyridin-1-one] | 4.6 | 315
14 | C[C@H]1COC(=O)N1c1cccc(N2Cc3c(cc(C4(C)CC4)nc3CN)C2=O)n1 [Example 42, 4-(aminomethyl)-6-(1-methylcyclopropyl)-2-{6-[(4S)-4-methyl-2-oxo-1,3-oxazolidin-3-yl]pyridin-2-yl}-2,3-dihydro-1H-pyrrolo[3,4-c]pyridin-1-one] | 0.33 | 192
15 | C[C@@H]1C[C@@H](C)N1c1cc2c(c(CN)n1)CN(c1cccc(N3C(=O)OC[C@@H]3C)n1)C2=O [Example 43, 4-(aminomethyl)-6-[(2R,4R)-2,4-dimethylazetidin-1-yl]-2-{6-[(4S)-4-methyl-2-oxo-1,3-oxazolidin-3-yl]pyridin-2-yl}-2,3-dihydro-1H-pyrrolo[3,4-c]pyridin-1-one] | 1.92 | 561
16 | C[C@H]1COC(=O)N1c1cccc(N2Cc3c(cc(N4CCC4)nc3CN)C2=O)n1 [Example 44, 4-(aminomethyl)-6-(azetidin-1-yl)-2-{6-[(4S)-4-methyl-2-oxo-1,3-oxazolidin-3-yl]pyridin-2-yl}-2,3-dihydro-1H-pyrrolo[3,4-c]pyridin-1-one] | 0.4 | 244
17 | CNCc1nc(N(C)C)cc2c1CN(c1cccc(N3C(=O)OC[C@@H]3CF)n1)C2=O [Example 45, 6-(dimethylamino)-2-{6-[(4R)-4-(fluoromethyl)-2-oxo-1,3-oxazolidin-3-yl]pyridin-2-yl}-4-[(methylamino)methyl]-2,3-dihydro-1H-pyrrolo[3,4-c]pyridin-1-one] | 0.17 | 173
18 | CCCn1cnnc1-c1cccc(N2Cc3c(cc(N(C)C)nc3CNC)C2=O)n1 [Example 46, 6-(dimethylamino)-4-[(methylamino)methyl]-2-[6-(4-propyl-4H-1,2,4-triazol-3-yl)pyridin-2-yl]-2,3-dihydro-1H-pyrrolo[3,4-c]pyridin-1-one] | 0.14 | 94
19 | CNCc1nc(C)cc2c1CN(c1cccc(-c3nncn3C(C)C)n1)C2=O [Example 47, 6-methyl-4-[(methylamino)methyl]-2-{6-[4-(propan-2-yl)-4H-1,2,4-triazol-3-yl]pyridin-2-yl}-2,3-dihydro-1H-pyrrolo[3,4-c]pyridin-1-one] | 7.1 | 1520
20 | CCN(C)c1cc2c(c(CNC)n1)CN(c1cccc(-c3nncn3C(C)C)n1)C2=O [Example 48, 6-[ethyl(methyl)amino]-4-[(methylamino)methyl]-2-{6-[4-(propan-2-yl)-4H-1,2,4-triazol-3-yl]pyridin-2-yl}-2,3-dihydro-1H-pyrrolo[3,4-c]pyridin-1-one] | 0.14 | 94
21 | CNCc1nc(C2(C)CC2)cc2c1CN(c1cccc(N3C(=O)OC[C@@H]3C)n1)C2=O [Example 49, 4-[(methylamino)methyl]-6-(1-methylcyclopropyl)-2-{6-[(4S)-4-methyl-2-oxo-1,3-oxazolidin-3-yl]pyridin-2-yl}-2,3-dihydro-1H-pyrrolo[3,4-c]pyridin-1-one] | 1.46 | 730
22 | CNCc1nc(N)cc2c1CN(c1cccc(-c3nncn3C(C)C)n1)C2=O [Example 50, 6-amino-4-[(methylamino)methyl]-2-{6-[4-(propan-2-yl)-4H-1,2,4-triazol-3-yl]pyridin-2-yl}-2,3-dihydro-1H-pyrrolo[3,4-c]pyridin-1-one] | 0.14 | 94
23 | CNCc1nc(N2[C@H](C)C[C@@H]2C)cc2c1CN(c1cccc(-c3nncn3C(C)C)n1)C2=O [Example 53, 6-[(2R,4S)-2,4-dimethylazetidin-1-yl]-4-[(methylamino)methyl]-2-{6-[4-(propan-2-yl)-4H-1,2,4-triazol-3-yl]pyridin-2-yl}-2,3-dihydro-1H-pyrrolo[3,4-c]pyridin-1-one] | 0.61 | 489
24 | CCCn1cnnc1-c1cccc(N2Cc3c(cc(N(C)CC)nc3CN)C2=O)n1 [Example 56, 4-(aminomethyl)-6-[ethyl(methyl)amino]-2-[6-(4-propyl-4H-1,2,4-triazol-3-yl)pyridin-2-yl]-2,3-dihydro-1H-pyrrolo[3,4-c]pyridin-1-one hydrochloride] | 0.34 | 139
